Assay results as given in the supplement of paper PMC10307832.

Tests used:
Experiment in all cases: relative viability (nuclei count vs DMSO), 5 days (fraction); higher = more cells survive
TGX 221 + Linsitinib = compound: CC1=CN2C(=O)C=C(N=C2C(=C1)C(C)NC3=CC=CC=C3)N4CCOCC4 [TGX 221] + C[C@]1(O)C[C@@H](c2nc(-c3ccc4ccc(-c5ccccc5)nc4c3)c3c(N)nccn32)C1 [Linsitinib] (partner 1 µM)
Procedure, shortened: (§1)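 After 5 days of treatment, lung cancer cells in 1536-well plates were fixed and stained in a single step (final 0.05% Triton X-100, 1% formaldehyde, 1 ug/ml Hoechst) and their nuclei counted on 4× images. Treatment had been applied by pin tool the day after seeding as one drug alone or as a fixed anchor-drug dose with five library-drug doses (not always all listed) in √10 steps. Relative viability is the nuclei count of treated wells divided by that of vehicle wells, and values are medians of duplicate plates.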

[1] = compound: C1=CC=C(C(=C1)C2=CC=C(C=C2)C3=CSC4=C3C(=C(C(=O)N4)C#N)O)O + NC(=O)Nc1cc(-c2cccc(F)c2)sc1C(=O)N[C@H]1CCCNC1 [AZD7762] (partner 0.2 µM)
Procedure, shortened: as §1

TGX 221 + Palbociclib = compound: CC1=CN2C(=O)C=C(N=C2C(=C1)C(C)NC3=CC=CC=C3)N4CCOCC4 [TGX 221] + CC(=O)c1c(C)c2cnc(Nc3ccc(N4CCNCC4)cn3)nc2n(C2CCCC2)c1=O [Palbociclib] (partner 0.5 µM)
Procedure, shortened: as §1

TGX 221 + Tozasertib = compound: CC1=CN2C(=O)C=C(N=C2C(=C1)C(C)NC3=CC=CC=C3)N4CCOCC4 [TGX 221] + Cc1cc(Nc2cc(N3CCN(C)CC3)nc(Sc3ccc(NC(=O)C4CC4)cc3)n2)n[nH]1 [Tozasertib] (partner 0.1 µM)
Procedure, shortened: as §1

Row | Cell Line | relative viability (TGX 221 + Linsitinib; first compound 0.08 µM) | relative viability (TGX 221 + Linsitinib; first compound 0.253 µM) | relative viability (TGX 221 + Linsitinib; first compound 0.8 µM) | relative viability (TGX 221 + Linsitinib; first compound 2.53 µM) | relative viability (TGX 221 + Linsitinib; first compound 8 µM) | relative viability ([1]; first compound 0.08 µM) | relative viability ([1]; first compound 0.253 µM) | relative viability ([1]; first compound 0.8 µM) | relative viability ([1]; first compound 2.53 µM) | relative viability ([1]; first compound 8 µM) | relative viability (TGX 221 + Palbociclib; first compound 0.08 µM) | relative viability (TGX 221 + Palbociclib; first compound 0.253 µM) | relative viability (TGX 221 + Palbociclib; first compound 0.8 µM) | relative viability (TGX 221 + Palbociclib; first compound 2.53 µM) | relative viability (TGX 221 + Palbociclib; first compound 8 µM) | relative viability (TGX 221 + Tozasertib; first compound 0.08 µM) | relative viability (TGX 221 + Tozasertib; first compound 0.253 µM) | relative viability (TGX 221 + Tozasertib; first compound 0.8 µM) | relative viability (TGX 221 + Tozasertib; first compound 2.53 µM) | relative viability (TGX 221 + Tozasertib; first compound 8 µM)
1 | NCI-H1651 | 0.851 | 0.67 | 0.723 | 0.726 | 0.533 | 0.496 | 0.454 | 0.428 | 0.479 | 0.334 | 0.525 | 0.465 | 0.505 | 0.489 | 0.44 | 0.602 | 0.649 | 0.696 | 0.566 | 0.418
2 | HCC-827 | 0.999 | 1.05 | 0.94 | 0.986 | 0.886 | 0.233 | 0.192 | 0.199 | 0.231 | 0.176 | 0.489 | 0.468 | 0.487 | 0.436 | 0.425 | 0.414 | 0.436 | 0.424 | 0.401 | 0.349
3 | NCI-H2085 | 0.947 | 0.774 | 0.673 | 0.309 | 0.408 | 0.891 | 1.06 | 0.86 | 1.02 | 0.997 | 0.506 | 0.481 | 0.43 | 0.35 | 0.291 | 0.792 | 0.729 | 0.598 | 0.541 | 0.427
4 | EPLC-272H | 0.973 | 1.12 | 1.02 |  | 1.24 | 0.258 |  | 0.247 | 0.208 | 0.183 | 0.324 | 0.35 | 0.32 | 0.328 | 0.289 | 0.187 | 0.275 | 0.282 | 0.186 | 0.138
5 | A-427 | 1.05 | 1.02 | 1.1 | 1.12 | 1.02 | 0.672 | 0.81 | 0.746 | 0.776 | 0.716 | 0.542 | 0.546 | 0.513 | 0.504 | 0.516 | 0.194 | 0.213 | 0.211 | 0.197 | 0.208
6 | ABC-1 | 0.964 | 0.794 | 0.773 | 0.557 | 0.547 | 0.781 | 0.881 | 0.799 | 0.855 | 0.827 | 0.742 | 0.519 | 0.654 | 0.648 | 0.597 | 0.192 | 0.157 | 0.203 | 0.188 | 0.161
7 | EMC-BAC-2 | 0.814 | 0.72 | 0.737 | 0.743 | 0.692 | 1.05 | 1.21 | 1.11 | 0.981 | 0.939 | 0.493 | 0.492 | 0.51 | 0.547 | 0.439 | 0.255 | 0.318 | 0.296 | 0.307 | 0.275
8 | NCI-H2405 | 0.595 | 0.698 | 0.639 | 0.697 | 0.573 | 0.661 |  | 0.752 | 0.635 | 0.686 | 0.482 | 0.484 | 0.504 | 0.456 | 0.482 | 0.737 | 0.771 | 0.693 | 0.745 | 0.697
9 | NCI-H1993 | 0.806 | 0.774 | 0.701 | 0.641 | 0.735 | 0.812 | 0.841 | 0.811 | 0.74 | 0.646 | 0.54 | 0.607 | 0.54 | 0.519 | 0.459 | 0.498 | 0.53 | 0.553 | 0.482 | 0.572
10 | LU99A | 0.478 | 0.481 | 0.512 | 0.536 | 0.492 | 0.331 | 0.293 | 0.335 | 0.391 | 0.275 | 0.383 | 0.344 | 0.373 | 0.405 | 0.366 | 0.24 | 0.274 | 0.258 | 0.282 | 0.276
11 | NCI-H1355 | 0.743 | 0.666 | 0.621 | 0.453 | 0.546 | 0.693 | 0.899 | 0.739 | 0.763 | 0.752 | 0.366 | 0.348 | 0.372 | 0.338 | 0.302 | 0.541 | 0.564 | 0.621 | 0.483 | 0.382
12 | NCI-H838 | 0.917 | 0.819 | 0.841 | 0.836 | 0.618 | 0.914 | 0.923 | 1.02 | 0.875 | 0.839 | 0.213 | 0.187 | 0.19 | 0.188 | 0.179 | 0.276 | 0.257 | 0.282 | 0.247 | 0.192
13 | NCI-H460 | 0.677 | 0.641 | 0.693 | 0.622 | 0.592 | 0.579 | 0.68 | 0.604 | 0.611 | 0.585 | 0.101 | 0.179 | 0.159 | 0.228 | 0.168 | 0.383 | 0.489 | 0.639 | 0.0964 | 0.131
14 | HCC-78 | 0.464 | 0.409 |  | 0.213 | 0.215 | 0.682 | 0.744 | 0.638 | 0.502 | 0.551 |  | 0.428 | 0.464 | 0.397 | 0.435 | 0.344 | 0.432 | 0.371 | 0.268 | 0.347
15 | NCI-H358 | 0.757 | 0.684 | 0.732 | 0.65 | 0.588 | 0.486 | 0.542 | 0.532 | 0.605 | 0.488 | 0.116 | 0.118 | 0.149 | 0.116 | 0.125 | 0.097 | 0.0915 | 0.103 | 0.108 | 0.0944
16 | H3255 | 0.841 | 0.847 | 0.892 | 0.912 | 0.859 | 0.898 | 1.07 | 0.757 | 0.9 | 0.848 | 0.312 | 0.342 | 0.331 | 0.29 | 0.321 | 0.449 | 0.529 | 0.692 | 0.563 | 0.613
